Data taken from patent publication US20260193619A1, “CULTURE MEDIUM COMPOSITION” (priority 2023, published 2026).

Experiments:
AAV8 = assay: Production of AAV8 in HEK293 by adding sodium dichloroacetate (genome titer by real-time PCR, particles by ELISA, full capsid ratio); format: cell-based, human; conditions: HEK293, 5 mM sodium dichloroacetate, 3 days after transfection, medium without DCA = 100%
Method: (§1) In the following Example 1, the ability of human embryonic kidney cell 293 (HEK293) to produce AAV was evaluated using sodium dichloroacetate. The reagents, cells, and medium used are as follows: • Sodium dichloroacetate: Sodium dichloroacetate (FUJIFILM Wako Pure Chemical Industries, Ltd., 326-87772) • HEK293: Viral Production Cells 2.0 (Thermo Fisher Scientific, A49784) • medium for HEK293: Viral Production Medium (Thermo Fisher Scientific: A4817901)
(§2) Viral Production Cells 2.0 were seeded in 30 mL of Viral Production Medium supplemented with GlutaMAXIM Supplement (Thermo Fisher Scientific: 35050061) to a final concentration of 4 mM in a 125 mL Erlenmeyer flask (VIOLAMO, SEF125V). The cells were then cultured in an incubator set at 37° C., 8% CO2 under stirring for two passages. […] On day 3, the number of viable cells was measured using a viable cell autoanalyzer Vi-CELL BLU (manufactured by Becman). […] 2 (Takara Bio: 6233), and the AAV8 genome titer was measured using 7500 Fast Real-Time PCR System (Thermo Fisher Scientific: 4357362). In addition, the number of viral particles was also measured using AAV-8 Titration ELISA Kit (PROGEN Biotechnik: PRAAV8). The full/empty capsid ratio (full capsid ratio) was calculated therefrom.

Human adenovirus 32 = assay: Production of adenovirus in HEK293 by adding sodium dichloroacetate in suspension culture system; format: cell-based; conditions: HEK293 2.sus, CDM4HEK293 with or without sodium dichloroacetate, MOI 0.1
Method: In the following Example, the ability of human embryonic kidney cell 293 (HEK293) to produce adenovirus can be evaluated using sodium dichloroacetate. […] The cell number is measured using a hemocytometer and glutamine-containing 293 SFM II is added to 3×10^5 cells/mL. […] The cell number is measured using a hemocytometer and the culture solution is added to 3×10^5 cells/mL. 5 ML of the adjusted cell suspension is added to two Petri dishes and culturing with shaking (50 rpm) is performed in a CO2 incubator for 3-4 days. • (11) After culturing, steps (8) to (10) are repeated three times. • (12) After culturing for 3 days, the cell number is measured (FIG. 1) and adjusted to 1×10^5 cells/ml using CDM4HEK293 with or without addition of sodium dichloroacetate, and 5 mL thereof is added per Petri dish. […]

HEK293 = assay: Effect of sodium dichloroacetate on proliferation of HEK293 in suspension culture (viable cell density); format: cell-based, human; conditions: HEK293 (Viral Production Cells 2.0), Viral Production Medium + 5 mM sodium dichloroacetate vs medium without, 3 days, FIG. 1
Method: as §1, §2

Question: Which results are given for `O=C([O-])C(Cl)Cl.[Na+]` [sodium dichloroacetate, Sodium dichloroacetate]?
Answer: AAV8 genome titer (relative) (AAV8; FIG. 2): improvements; full capsid ratio (relative) (AAV8; FIG. 3): improvements; adenovirus titer (Human adenovirus 32): Improvement; cell proliferation (viable cell density before dilution on day 3 after seeding) (HEK293): slightly inhibited cell proliferation
